Test results reported in US20210221812A1, “MATRINE a-KETOAMINE COMPOUNDS, PREPARATION METHOD THEREFOR AND USE THEREOF” (SHANGHAI XINGYE PHARMACEUTICAL TECHNOLOGY CO., LTD, priority 2018, published 2021).
Like-named read-outs stand apart in the source and are kept apart here.

How the values were obtained:
[1] = system: TNF-α; assay: TNF-α activity inhibiting assay (LPS-stimulated peripheral blood, ELISA); type: cell-based, human; details: compound 20 μM, LPS 10 ng/mL, 6 hours, diluted peripheral blood of healthy volunteers; for inhibition at 20 µM: Homo sapiens, read-out: TNF-α inhibition rate (%)
Protocol: Methods: Peripheral blood from healthy volunteers was collected with EDTA anticoagulant tubes. After being diluted 5-fold with 1640 medium (Gibco, USA), the blood was added to 96-well cell culture plates (Costar, USA) and then treated with 10 μL solution of the compound of general formula (I) of the present invention in DMSO (Sigma, USA), the final concentration of the compound was 20 μM with the final concentration of DMSO was 0.2%. After incubation for 60 minutes in an incubator at 37° C. under 5% CO2, 10 μL LPS (Sigma, USA) was added to the reaction system, and the final concentration was 10 ng/mL. After further culturing for 6 hours in the incubator at 37° C. under 5% CO2, the supernatant was collected. The content of TNF-α was determined by ELISA (BD Biosciences, USA). Absorbance was detected at OD450 nm with a microplate reader, with OD 650 nm as reference. The control, a solution containing 0.2% DMSO medium, was as 0% inhibition. Raw data and standard curves were recorded. The four-parameter drug inhibition curve was plotted by XL-fit software and the inhibition rate of each compound was calculated.

[2] = system: Panc-1 cells; assay: MTT tumor cell growth inhibition, Panc-1; type: cell-based; details: 48 h, read-out: Tumors growth-inhibitory activity (IC50) Panc-1
Protocol: (§1) Using MTT method to determine the growth inhibition activity of the matrine compounds on Lovo, MGC-803, Mia-paca2, HpeG-2, A549, k562, and Panc-1 cells in vitro. Logarithmic growth phase of Lovo, MGC-803, Mia-paca2, HpeG-2, A549, k562, Panc-1 cells were inoculated into 96-well plates (purchased from Institute of Biochemical Cells, Chinese Academy of Sciences, and cultured according to conventional tumor cell culture methods) at a density of 4×10^4/mL and 180 μL/well; after the cells adhered to the wall, 20 μL of drug solution was added to each well and matined the final drug concentrations were 0.1 μM, 1 μM, 10 μM, 50 μM, 100 μM respectively. After 48 h, 5 mg/mL MTT solution was added (20 μL/well) and maintained in a CO2 incubator for 3-4 h. After that, discarding the supernatant carefully, and DMSO was added (200 μL/well) when the residual liquid was air-dried, and shook for 0.5-1 h until the residual crystals was dissolved. The absorbance OD was measured at 492 nm by a microplate reader. GraphPad Prism 5 software was used to calculate the IC50 value.

[3] = system: k562 cells; assay: MTT tumor cell growth inhibition, k562; type: cell-based; details: 48 h, read-out: Tumors growth-inhibitory activity (IC50) k562
Protocol: as §1

[4] = system: Mia-paca2 cells; assay: MTT tumor cell growth inhibition, Mia-paca2; type: cell-based; details: read-out: Tumors growth-inhibitory activity (IC50) Mia-paca2
Protocol: as §1

[5] = system: A549 cells; assay: MTT tumor cell growth inhibition, A549; type: cell-based; details: 48 h, read-out: Tumors growth-inhibitory activity (IC50) A549
Protocol: as §1

[6] = system: HpeG-2 cells; assay: MTT tumor cell growth inhibition, HpeG-2; type: cell-based; details: 48 h, read-out: Tumors growth-inhibitory activity (IC50) HpeG-2
Protocol: as §1

[7] = system: MGC-803 cells; assay: MTT tumor cell growth inhibition, MGC-803; type: cell-based; details: 48 h, read-out: Tumors growth-inhibitory activity (IC50) MGC-803
Protocol: as §1

[8] = system: Lovo cells; assay: MTT tumor cell growth inhibition, Lovo; type: cell-based; details: 48 h, read-out: Tumors growth-inhibitory activity (IC50) Lovo
Protocol: as §1

With `O=C1c2ccccc2C(=O)N1C1CC[C@@H]2[C@H]3CCCN4CCC[C@H](CN2C1=O)[C@@H]34` (stereo partly drawn) [GJD 28] the inhibition at 20 µM [1] was > 50%.
For `Cc1cccc2c1C(=O)N(C1CC[C@@H]3[C@H]4CCCN5CCC[C@H](CN3C1=O)[C@@H]45)C2=O` (stereo partly drawn) [GJD 29], the inhibition at 20 µM [1] was > 50%.
In the case of `O=C1c2ccccc2CN1C1CC[C@@H]2[C@H]3CCCN4CCC[C@@H](CN2C1=O)[C@@H]34` (stereo partly drawn) [GJD 30], the inhibition at 20 µM [1] is reported as < 50%.
With `CC(=O)Nc1cccc2c1CN(C1CC[C@@H]3[C@H]4CCCN5CCC[C@@H](CN3C1=O)[C@@H]45)C2=O` (stereo partly drawn) [GJD 33] the inhibition at 20 µM [1] was > 50%.
In the case of `O=C(Nc1cccc2c1CN(C1CC[C@@H]3[C@H]4CCCN5CCC[C@@H](CN3C1=O)[C@@H]45)C2=O)c1ccccc1` (stereo partly drawn) [GJD 34], the IC50 ([2]; Homo sapiens) is reported as 50 to 100 µM, the IC50 ([3]; Homo sapiens) is reported as < 50 µM and the IC50 ([4]; Homo sapiens, MIA PaCa-2, 48 h) is reported as 50 to 100 µM. For the same compound, the IC50 ([5]; Homo sapiens) was 50 to 100 µM, the IC50 [6] was < 50 µM and the IC50 ([7]; Homo sapiens) was 50 to 100 µM. It also gave an IC50 ([8]; Homo sapiens) of 50 to 100 µM.
With `Nc1cccc2c1CN(C1CC[C@@H]3[C@H]4CCCN5CCC[C@@H](CN3C1=O)[C@@H]45)C2=O` (stereo partly drawn) [GJD 35] the inhibition at 20 µM [1] was > 50%.
`Cc1cccc2c1CN(C1CC[C@@H]3[C@H]4CCCN5CCC[C@@H](CN3C1=O)[C@@H]45)C2=O` (stereo partly drawn) [GJD 38] was tested, and the “TNF-α inhibition rate (%)” value [1] was >50%.
With `Nc1ccc2c(c1)C(=O)N(C1CC[C@@H]3[C@H]4CCCN5CCC[C@@H](CN3C1=O)[C@@H]45)C2` (stereo partly drawn) [GJD 41] the inhibition at 20 µM [1] was > 50%.
With `Cc1cccc2c1CN(C1CC[C@@H]3[C@H]4CCCN5CCC[C@H](CN3C1=O)[C@@H]45)C2=O` (stereo partly drawn) [GJD 44] the inhibition at 20 µM [1] was > 50%.
With `Nc1ccc(S(=O)(=O)NC2=CC[C@@H]3[C@H]4CCCN5CCC[C@@H](CN3C2=O)[C@@H]45)cc1` [GJD 47] the IC50 ([2]; Homo sapiens) was > 100 µM, the IC50 ([3]; Homo sapiens) was 50 to 100 µM and the IC50 ([4]; Homo sapiens, MIA PaCa-2, 48 h) was > 100 µM. The IC50 ([5]; Homo sapiens) was 50 to 100 µM, the IC50 [6] was 50 to 100 µM and the IC50 ([7]; Homo sapiens) was > 100 µM. For the same compound, the IC50 ([8]; Homo sapiens) was 50 to 100 µM.
In the case of `Nc1ccccc1C(=O)NC1CC[C@@H]2[C@H]3CCCN4CCC[C@@H](CN2C1=O)[C@@H]34` (stereo partly drawn) [GJD 49], the inhibition at 20 µM [1] is reported as > 50%.
With `O=C(NC1CC[C@@H]2[C@H]3CCCN4CCC[C@@H](CN2C1=O)[C@@H]34)c1ccccc1O` (stereo partly drawn) [GJD 50] the inhibition at 20 µM [1] was > 50%.
For `O=C(NC1CC[C@@H]2[C@H]3CCCN4CCC[C@@H](CN2C1=O)[C@@H]34)c1ccc(OC(F)F)c(OCC2CC2)c1` (stereo partly drawn) [GJD 52], the IC50 ([2]; Homo sapiens) was 50 to 100 µM, the IC50 ([3]; Homo sapiens) was 50 to 100 µM and the IC50 ([4]; Homo sapiens, MIA PaCa-2, 48 h) was 50 to 100 µM. The IC50 ([5]; Homo sapiens) was < 50 µM, the IC50 [6] was < 50 µM and the inhibition at 20 µM [1] was > 50%. The IC50 ([7]; Homo sapiens) was 50 to 100 µM and the IC50 ([8]; Homo sapiens) was 50 to 100 µM.
With `COc1ccc(C(=O)NC2CC[C@@H]3[C@H]4CCCN5CCC[C@@H](CN3C2=O)[C@@H]45)cc1OC1CCCC1` (stereo partly drawn) [GJD 53] the inhibition at 20 µM [1] was > 50%.
In the case of `CCOc1cc(C(=O)NC2CC[C@@H]3[C@H]4CCCN5CCC[C@@H](CN3C2=O)[C@@H]45)ccc1OC` (stereo partly drawn) [GJD 54], the inhibition at 20 µM [1] is reported as > 50%.
`O=C1c2cccc(F)c2C(=O)N1C1CC[C@@H]2[C@H]3CCC[N+]4([O-])CCC[C@@H](CN2C1=O)[C@@H]34` (stereo partly drawn) [GJD 65] was tested, and the “TNF-α inhibition rate (%)” value [1] was ≥50%.
In the case of `O=C1c2cccc([N+](=O)[O-])c2C(=O)N1C1CC[C@@H]2[C@H]3CCC[N+]4([O-])CCC[C@@H](CN2C1=O)[C@@H]34` (stereo partly drawn) [GJD 66], the IC50 [2] is reported as < 50 µM, the IC50 [3] is reported as < 50 µM and the IC50 ([4]; 48 h) is reported as 50 to 100 µM. The IC50 [5] was < 50 µM, the IC50 [6] was < 50 µM and the “TNF-α inhibition rate (%)” value [1] was <50%. The IC50 [7] was 50 to 100 µM and the IC50 [8] was < 50 µM.
With `O=C1CCC[C@@H]2[C@H]3CCC[N+]4([O-])CCC[C@@H](CN12)[C@@H]34` (stereo partly drawn) [Oxymatrine, oxymatrine, reference compound] the inhibition at 20 µM [1] was < 50%.
In the case of `O=C1CCC[C@@H]2[C@H]3CCCN4CCC[C@H](CN12)[C@@H]34` [Sophoridine, sophoridine, reference compound], the inhibition at 20 µM [1] is reported as < 50%.
